Earlier results on five molecules are cited in patent US20210213129A1, “NON-PSYCHOACTIVE CANNABINOIDS AS ADJUVANTS TO ENHANCE MUCOSAL IMMUNITY” (Immugen Pharma LLC, priority 2014, published 2021).

In data set [1] the test system is B-cells. The following applies: cultured B-cells, co-stimulation with IL-4 and anti-CD40.
Data set [2] has as its system virgin and GC B cells.
Data set [3] relates to B cells. Conditions: selective CB1 antagonist added.
The subject of data set [4] is macrophages. Conditions: macrophages activated by LPS or TMEV.
In data set [5] the test system is T cells. Conditions: T cells stimulated by allogeneic dendritic cells or anti-CD3/anti-CD28.
Data set [6] relates to GATA3; IL12Rβ2. Conditions: mice, after Legionella challenge.
The test system of data set [7] is T cells. Conditions: mixed lymphocyte reaction and highly purified T cells.

SMILES strings stand for the structures.

Take `CCCCCCC(C)(C)c1ccc([C@@H]2C[C@H](O)CC[C@H]2CCCO)c(O)c1` [CP55940]: the “increased IgE expression” value in data set [1] is reported as 40-60%. For the same molecule, in data set [2] (in the absence of CD40 MoAbs), the “proliferation of B-cell subsets” value was “incapable of inducing any proliferation”.

For `Cc1ccc(Cn2nc(C(=O)NC3C4(C)CCC(C4)C3(C)C)cc2-c2ccc(Cl)c(C)c2)cc1` (centres unmarked) [SR 144528A], the “proliferative response of virgin and GC B cells by CP55,940” value in data set [2] (selective CB2 receptor antagonist against agonist CP55,940) was “inhibited”.

With `Cc1c(C(=O)NN2CCCCC2)nn(-c2ccc(Cl)cc2Cl)c1-c1ccc(Cl)cc1` [SR141716A], in data set [3], the “block of CB2 receptor mRNA expression and of the B-cell enhancing effects of the drug” value is “did not block”.

As to `CCCC(C)(C)c1ccc2c(c1)OC(C)(C)[C@@H]1CC=C(C)C[C@@H]21` [JWH-133], in data set [4], the IL-12p40 result was “downregulated”.

On to `CCCCCc1cc(O)c2c(c1)OC(C)(C)[C@@H]1CCC(C)=C[C@@H]21` [THC, tetrahydrocannabinol], for which the “IL-4, % of diluent control levels” value in data set [5] (of diluent control levels) is given as 105±11%. The “decrease of INF-γ” value in data set [5] (p<0.05) is on record as 51±18%. Also, the “TH2 biasing factor GATA3” value in data set [6] (CB2 mechanism) is reported as “upregulation”. In addition, in data set [6] (mediated by CB1 receptor), the “IL12Rβ2, a marker of TH1 polarization” value is recorded as “downregulation”. Besides, the “Th1 cytokines Il-2, IFN-γ and Il-12” value in data set [7] (CB1 mediated) was “downregulation”. Further, the “IL-4 and Il-5” value in data set [7] (CB2 mediated) is on record as “upregulation”.
